{
  "source": "patent US20160158245A1",
  "about": "“PHARMACEUTICAL FORMULATION CONTAINING THIENOTRIAZOLODIAZEPINE COMPOUNDS” (ONCOETHIX GmbH, priority 2013, published 2016)",
  "type_in_all_cases": "cell-based",
  "key": {"[1]": {"test_system": "primary AML patient samples", "assay": "Apoptosis in primary patient cells treated ex vivo", "settings": "5 AML patient samples ex vivo, 72 h, 250 and 500 nM", "description": "(§1) FIGS. 44A-44D show effects of OTX015 on primary patient cells. 5 samples from AML patients and 2 ALL, including 1 ALL Ph+ patient, were treated ex vivo with OTX015. OTX015 induced apoptosis in primary AML patient samples at various degrees ranging from 35-85% (FIG. 6). The Ph+ALL patient appeared to be resistant. OTX015 induced apoptosis in primary cells of the AML and ALL patients. Mononuclear cells were obtained from bone marrow (BM) or peripheral blood (PB) from AML and ALL patients. Cells were exposed 72 h with 250 and 500 nM of OTX015 and apoptosis was assessed by annexin V and PI staining. Results are shown with means±SD from duplicates of one experiment.\n(§2) Mononuclear cells (MNC) from the bone marrow (BM) were isolated by Ficoll-Paque PLUS density gradient (Amersham Biosciences, Sunnyvale, USA). Patient cells were maintained in IMDM (Gibco) supplemented with 10% heat-inactivated fetal calf serum, 2 mM L-glutamine, 100 IU/mL penicillin, and 100 µg/mL streptomycin without growth factors.\n(§3) a total of 1×10^6 cellsderived from patients or cell lines were resuspended in 1 mL culture medium and incubated with the indicated dosages of OTX015 prepared freshly from 1 mM stock solution in DMSO. […] Apoptotic cells were detected by cytofluorometric analysis using a FACScan (Becton Dickinson, Mountain View, USA). […] Data were analyzed with the Flowjo (Tree Star Inc., Ashland, USA) flow cytometry software. […]"}, "[2]": {"test_system": "Ph+ALL patient cells", "assay": "Apoptosis in primary patient cells treated ex vivo", "settings": "1 Ph+ ALL patient sample ex vivo, 72 h, 250 and 500 nM", "description": "as §1, §2, §3"}, "[3]": {"test_system": "ALL cell lines", "assay": "MTT assay, statement over all ALL cell lines", "settings": "MTT at 72 h, span over ALL cell lines; read-out: GI50 across all ALL cell lines", "description": "Different representative cell lines for ALL including Jurkat cells (T-ALL), RS 4-11 (MLL-AF4 B-precursor ALL), TO′M-1, BV173 (both Ph+ALL) and AML including K562 (Ph+CML in blast crisis,), HL-60 (NRAS driven AML2), NOMO1 (MLL-AF9 driven AML), KG1 (BMP-FGRF+AML6) and its more immature subtype KG1a were cultured in RPMI 1640 (Gibco Invitrogen, Basel, Switzerland) supplemented with 10% or 20% heat-inactivated fetal calf serum respectively, 2 mM L-glutamine, 100 IU/mL penicillin, and 100 µg/mL streptomycin.\nMTT-assay: cells were seeded first into 24-well plates at the density of […] per well to avoid variations of concentrations in smaller volumes and treated with different doses of OTX015 prepared freshly from 1 mM stock solution in DMSO. Cells were transferred to 96-well plates for MTT-assay. Untreated cells and cells treated with equal amounts of DMSO (0.2-1%) used for dilution of OTX015 were used as controls. The 3-(4,5-dimethylthiazol-2-yl)-2,5-diphenyltetrazolium bromide (MTT) (Molecular Probes, Eugene, USA) was prepared as a stock of 5 mg/ml in PBS. […] Cells were then lysed with 25% SDS lysis buffer and absorbance was read at 570 nm. […] GI50 values were calculated with Prism v5 software (GraphPad Inc., La Jolla, USA).\nAML and ALL cell lines were exposed to increasing concentrations of compound (1-1), (0.1 nM-10 μM). […] GI50 values were expressed as means from 3 independent experiments."}, "[4]": {"test_system": "BRD4, BRD2 and BRD3", "assay": "RQ-PCR of BRD4, BRD2 and BRD3 in leukemia cell lines", "settings": "250 nM and 500 nM, 48 h", "quoted_text": "The total RNA obtained after extraction with TRIZOL (Invitrogen, Grand Island, USA) were titrated to 1 μg/uL and stored at −80° C. The complementary DNA (cDNA) was synthesized from 1 μg RNA. The RQ-PCR reactions (BRD2, BRD3, BRD4, c-MYC and ABL) were performed in a volume of 25 ul from a tenth of the cDNA (equivalent to 100 ng of RNA) on a thermocycler ABI7900HT in standard mode (1 cycle of 2 minutes at 50° C.-10 minutes at 95° C. followed by 50 cycles of 15 seconds at 95° C.-1 minute at 60° C.)."}, "[5]": {"test_system": "BRD4, BRD3 and c-MYC in HL60", "assay": "Immunoblot (protein level) in HL60", "settings": "HL60, 500 nM", "description": "FIGS. 43A-43L illustrate effects of OTX015 at the protein level for BRD 4, BRD2 and BRD 3 as well as c-MYC. […] AML cell lines HL60, K562 (FIGS. 43A-43C; FIG. 43D-43F) and ALL cell lines Jurkat and RS4-11 (FIG. 43G-43I; FIG. 4JD-43L) were treated with OTX015 at 500 nM and compared to controls exposed to according DMSO. At indicated time-points proteins were extracted and immunoblotted with BRD4, BRD3, BRD2 or c-MYC antibodies after gel electrophoresis. […] One representative experiment out of three is shown.\nThe membranes were blocked with LiCor blocking buffer (LiCor, Lincoln, Nebr., USA) and incubated with the respective primary antibody: anti-BRD4 (Epitomics 5716-1, Burlingame, USA), anti-BRD3 (ab56342, AbCam, UK), anti-BRD2 (ab37633, AbCam, UK), anti c-MYC (sc-764 (N262), Santa Cruz, USA) and anti-GAPDH (Invitrogen 398600, Grand Island, USA). Blots were stained with either goat anti-rabbit InfraRedDye 680RD or goat anti-mouse InfraRedDye 800CWsecondary antibody (LiCor). Membranes were imaged using a LiCor Odyssey scanner. Boxes were manually placed around each band of interest, which returned near-infrared fluorescent values of raw intensity with intra-lane background subtracted using Odyssey 3.0 analytical software (LiCor)."}},
  "data": [
    {"smiles": "Cc1sc2c(c1C)C(c1ccc(Cl)cc1)=N[C@@H](CC(=O)Nc1ccc(O)cc1)c1nnc(C)n1-2", "note": "[Compound (1-1), 2-[(6S)-4-(4-chlorophenyl)-2,3,9-trimethyl-6H-thienol[3,2-f]-[1,2,4]triazolo[4,3-a][1,4]diazepin-6-yl]-N-(4-hydroxyphenyl)acetamide dihydrate]", "values": [
      {"measurement": "apoptosis", "setting": "[1]", "result": "35-85%"},
      {"measurement": "sensitivity to apoptosis induction", "setting": "[2]", "result": "resistant"},
      {"measurement": "GI50", "setting": "[3]", "result": "34.2 to 250", "unit": "nM"},
      {"measurement": "down regulation of BRD4, BRD2 or BRD3 at the cDNA level", "setting": "[4]", "result": "not able to detect a consistent down regulation"},
      {"measurement": "upregulation of BRD3 and BRD2 at the cDNA level", "setting": "[4]", "result": "significant upregulation of BRD3 and BRD2 in KG1, K562 and Jurkat and increase of BRD2 in KG1 and HL60"},
      {"measurement": "c-MYC protein level", "setting": "[5]; 24 h", "result": "transient downregulation"},
      {"measurement": "BRD4 and BRD3 protein level", "setting": "[5]; 72 h", "result": "remained unaffected"}
    ]}
  ]
}
